Reference: ChEMBL document CHEMBL1127653, “Synthesis and anticholinergic activity of the four stereoisomers of 4-(dimethylamino)-2-phenyl-2-(2-pyridyl)pentanamide” (J Med Chem, 1994)
pIC50: −log10 of the molar value.

Species on record: Cavia porcellus
Experiment: Inhibitory effect on acetylcholine-Induced contraction of Guinea pig iIeum
Format: functional

Compound `CN(C)CCC(C(N)=O)(c1ccccc1)c1ccccn1` (configuration not stated) has a pIC50 (Cavia porcellus) of 5.09.
Work on `CC(CC(C(N)=O)(c1ccccc1)c1ccccn1)N(C)C` (racemic; form 1) [VAMICAMIDE] yielded a pIC50 of 5.82.
`CC(CC(C(N)=O)(c1ccccc1)c1ccccn1)N(C)C` (racemic; form 2) [VAMICAMIDE] gave a pIC50 of 6.24.
For `C[C@H](C[C@@](C(N)=O)(c1ccccc1)c1ccccn1)N(C)C` (stereo in doubt; 10 (2R,4R)), the pIC50 was 6.40.
`C[C@H](C[C@@](C(N)=O)(c1ccccc1)c1ccccn1)N(C)C` (stereo in doubt; 11 (2S,4S)) showed a pIC50 of 4.51.
With `C[C@H](C[C@@](C(N)=O)(c1ccccc1)c1ccccn1)N(C)C` (stereo in doubt; 12 (2R,4S)) the pIC50 was 3.77.
With `C[C@H](C[C@@](C(N)=O)(c1ccccc1)c1ccccn1)N(C)C` (stereo in doubt; 13 (2S,4R)) the pIC50 was 6.89.
